Assay results taken from ChEMBL document CHEMBL2074507, “Transport of small organic cations in the rat liver. The role of the organic cation transporter OCT1” (Naunyn Schmiedebergs Arch Pharmacol, 1996).

Legend:
[1] = molecular target: T1, Solute carrier family 22 member 1 (Rattus norvegicus, UniProt Q63089); assay: TP_TRANSPORTER: inhibition of MPP+ uptake in OCT1-expressing HEK293 cells; assay type: functional, cell-based
T1 sequence (Q63089 whole entry): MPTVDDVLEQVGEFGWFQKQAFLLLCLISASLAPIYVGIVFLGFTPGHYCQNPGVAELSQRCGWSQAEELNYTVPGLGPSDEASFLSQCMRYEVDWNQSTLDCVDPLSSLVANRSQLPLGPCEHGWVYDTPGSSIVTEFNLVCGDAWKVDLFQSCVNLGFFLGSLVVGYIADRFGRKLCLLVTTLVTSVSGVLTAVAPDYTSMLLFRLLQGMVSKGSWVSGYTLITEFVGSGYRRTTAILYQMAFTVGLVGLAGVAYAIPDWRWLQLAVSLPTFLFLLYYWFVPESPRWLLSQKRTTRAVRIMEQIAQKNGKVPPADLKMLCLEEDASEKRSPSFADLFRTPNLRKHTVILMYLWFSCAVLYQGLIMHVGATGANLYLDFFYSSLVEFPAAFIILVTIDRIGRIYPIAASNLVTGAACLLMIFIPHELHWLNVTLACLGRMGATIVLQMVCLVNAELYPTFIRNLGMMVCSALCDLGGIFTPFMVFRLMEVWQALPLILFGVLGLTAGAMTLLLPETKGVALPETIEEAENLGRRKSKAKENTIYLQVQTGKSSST

[2] = substrate: C[n+]1ccc(-c2ccccc2)cc1; assay: TP_TRANSPORTER: uptake in OCT1-expressing HEK293 cells; assay type: functional, cell-based

`CCN1/C(=C/c2ccc3ccccc3[n+]2CC)C=Cc2ccccc21` was tested, and the Ki [1] was 500 nM.

With `Clc1cccc(Cl)c1N=C1NCCN1` [CLONIDINE] the Ki [1] was 1400 nM.

`C[C@]12C[C@H](O)[C@H]3[C@@H](CCC4=CC(=O)CC[C@@]43C)[C@@H]1CC[C@@H]2C(=O)CO` [CORTICOSTERONE] showed a Ki [1] of 72000 nM.

With `CC[n+]1c(CC2C=C(C)N=C(c3ccccc3)N2C)ccc2ccccc21` (configuration not stated) [Cyanine-863] the Ki [1] was 670 nM.

Molecule `CC(C)N1/C(=C\c2cc[n+](C(C)C)c3ccccc23)C=Cc2ccccc21` [DISPROCYNIUM24] has a Ki [1] of 110 nM.

With `COc1cc(C(O)CNC(C)C)ccc1O` (configuration not stated) [METIPRENALINE] the Ki [1] was 25000 nM.

B1: Solute carrier family 22 member 1 (Rattus norvegicus) (protein)
chain: T1 sequence (Q63089 whole entry)
Work on B1 yielded a Km [2] of 13 µM.
